Where a name gives a salt, the structure may show the parent alone.
Tests used:
ErbB2 = ErbB2 (Homo sapiens, UniProt P04626); experiment: ErbB2 kinase autophosphorylation assay (peptide phosphorylation, HTRF); format: biochemical; conditions: 10 nM ErbB2, HTRF; class by pIC50
Method: (§1) A selection of compounds of the present invention were tested for inhibitory activity against EGFR and ErbB2 kinases in autophosphorylation assays.
(§2) The method measures the ability of the isolated enzyme to catalyse the transfer of the gamma-phosphate from ATP onto the tyrosine residue of a biotinylated synthetic peptide referenced “Peptide C” in Brignola, P. S., et al, (2002) J. Biol. Chem. 277(2):1576-1585. The extent of tyrosine phosphorylation was measured using an anti-phosphotyrosine antibody, and quantified by homogenous time-resolved fluorescence (HTRF).
(§3) Reactions were performed in black 384-well polystyrene flat-bottom plates in a final volume of 20 ul. Assays were performed by adding 10 μl of each of the following solutions, substrate Mix and enzyme mix: The Substrate mix contained 100 mM 3-[N-morpholino]propanesulfonic acid (MOPS) (pH 7.5), 2 mM MnCl2, 20 μM ATP, 0.01% Tween-20, 0.1 mg/mL (BSA), 0.8 uM peptide substrate, and 1 mM dithiothreitol. The enzyme mix contained 100 mM MOPS (pH7.5); 0.01% Tween-20; 0.1 mg/mL BSA, and either 0.8 nM EGFR, 10 nM ErbB2, or 1 nM ErbB4
(§4) The enzyme mix was added to the compound plates and the plates were incubated at 20° C. for 1 hour. The reactions were allowed to proceed for 90 minutes at 20° C. The reactions were then terminated by the addition of 20 μl 100 mM EDTA to each well. 40 μl/well of HTRF detection mix were added to the assay plates. The final concentrations of the detection reagents were: 100 mM HEPES (pH7.5), 0.1 mg/mL BSA, 15 nM streptavidin-labeled allophycocyanin (PerkinElmer), and 1 nM europium-labeled anti-phosphotyrosine antibody (PerkinElmer). Assay plates were left unsealed and were counted in a Wallac Multilabel Counter 1420 (PerkinElmer).
(§5) Compounds under analysis were dissolved in Me2SO to 1.0 mM and serially diluted 1 to 3 with Me2SO through twelve dilutions. 1 μl of each concentration was transferred to the corresponding well of an assay plate. This creates a final compound concentration range from 0.00027 to 47.6 μM.
(§6) The data for dose responses were plotted as % Inhibition calculated with the data reduction formula 100*(1−(U1−C2)/(C1−C2)) versus concentration of compound where U is the unknown value, C1 is the average control value obtained for 4.76% DMSO, and C2 is the average control value obtained for 0.035 M EDTA. Data were fitted with a curve described by:
(§7) where Vmax is the upper asymptote, Y2 is the Y intercept, and K is the IC50. The results for each compound were recorded as pIC50s, calculated as follows: […]
(§8) In the following table: • “+” indicates no pIC50 measurement greater than 6 against EGFR or ErbB2, • “++” indicates at least one pIC50 measurement greater than 6 against EGFR or ErbB2 but no measurement greater than pIC50 of 7; and • “+++” indicates at least one pIC50 measurement of greater than 7 against EGFR or ErbB2.

SK-MEL-28 tumor cells = experiment: Cell growth inhibition assay (CellTiter-Glo), SK-MEL-28; conditions: Homo sapiens, SK-MEL-28, 72 h, read-out: Activity in SK-MEL-28 Tumor Cells;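 further: luminescent total ATP as a proxy for cell number, threefold serial dilutions at 0.2% DMSO, percent growth inhibition versus DMSO vehicle control wells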
A375P tumor cells = experiment: Cell growth inhibition assay (CellTiter-Glo), A375P; conditions: Homo sapiens, 72 h, read-out: Activity in A375P Tumor Cells;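 further: total ATP luminescence used as proxy for cell number, serial threefold compound dilutions at 0.2% DMSO, growth inhibition expressed versus DMSO vehicle-treated wells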
B-Raf = B-Raf (Homo sapiens, UniProt P15056); experiment: B-Raf Accelerated MEK ATPase assay (BRAMA); format: biochemical; conditions: BRAMA enzyme assay; class by pIC50; read-out: B-Raf Activity
Summary of the method: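 B-Raf activity read as intrinsic MEK ATPase: catalytic activated RAF with non-phosphorylated MEK drives ADP formation, coupled through pyruvate kinase and lactate dehydrogenase to NADH oxidation, independent of ERK phosphorylation.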

HT-29 tumor cells = experiment: Cell growth inhibition assay (CellTiter-Glo), HT-29; conditions: Homo sapiens, HT-29, 72 h, read-out: Activity in HT-29 Tumor Cells;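 further: ATP content read by luminescence as proxy for cell number, growth inhibition versus DMSO vehicle wells, 0.2% DMSO final, nine serial threefold compound dilutions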
Colo205 tumor cells = experiment: Cell growth inhibition assay (CellTiter-Glo), Colo205; conditions: Homo sapiens, COLO 205, 72 h, read-out: Activity in Colo205 Tumor Cells;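 further: growth measured via total ATP luminescence (CellTiter-Glo) as a proxy for cell number, inhibition expressed against DMSO-treated control wells, 3-day exposure at 0.2% final DMSO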
SK-MEL-3 tumor cells = experiment: Cell growth inhibition assay (CellTiter-Glo), SK-MEL-3; conditions: Homo sapiens, SK-MEL3, 72 h, read-out: Activity in SK-MEL-3 Tumor Cells;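 further: human melanoma cells grown with compound for 3 days in 0.2% DMSO, total ATP read by luminescence as proxy for cell number, growth inhibition versus DMSO-treated wells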
EGFR = EGFR (Homo sapiens, UniProt P00533); experiment: EGFR kinase autophosphorylation assay (peptide phosphorylation, HTRF); format: biochemical; conditions: 0.8 nM EGFR, class by pIC50
Method: as §1, §2, §3, §4, §5, §6, §7, §8

Sequence of B-Raf (P15056 whole entry): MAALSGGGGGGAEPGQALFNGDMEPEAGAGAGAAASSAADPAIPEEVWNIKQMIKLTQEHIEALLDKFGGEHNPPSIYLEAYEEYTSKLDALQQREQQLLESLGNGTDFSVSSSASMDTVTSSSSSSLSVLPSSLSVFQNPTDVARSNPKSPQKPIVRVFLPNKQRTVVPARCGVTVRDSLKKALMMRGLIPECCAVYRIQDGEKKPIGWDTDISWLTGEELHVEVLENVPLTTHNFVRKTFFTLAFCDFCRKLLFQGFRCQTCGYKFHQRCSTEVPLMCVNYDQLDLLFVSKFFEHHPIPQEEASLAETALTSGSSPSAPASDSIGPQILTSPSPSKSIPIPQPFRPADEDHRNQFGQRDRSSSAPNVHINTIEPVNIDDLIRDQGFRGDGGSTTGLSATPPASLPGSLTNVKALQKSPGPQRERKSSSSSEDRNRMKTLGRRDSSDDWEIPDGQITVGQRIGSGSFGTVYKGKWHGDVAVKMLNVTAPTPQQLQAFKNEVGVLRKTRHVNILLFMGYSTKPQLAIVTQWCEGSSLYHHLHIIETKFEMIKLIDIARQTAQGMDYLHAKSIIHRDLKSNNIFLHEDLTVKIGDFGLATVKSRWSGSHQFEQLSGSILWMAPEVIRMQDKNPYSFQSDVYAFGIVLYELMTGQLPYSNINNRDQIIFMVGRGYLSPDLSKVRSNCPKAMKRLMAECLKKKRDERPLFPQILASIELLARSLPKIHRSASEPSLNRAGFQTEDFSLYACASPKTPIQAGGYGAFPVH
Sequence of EGFR (P00533 25-1210): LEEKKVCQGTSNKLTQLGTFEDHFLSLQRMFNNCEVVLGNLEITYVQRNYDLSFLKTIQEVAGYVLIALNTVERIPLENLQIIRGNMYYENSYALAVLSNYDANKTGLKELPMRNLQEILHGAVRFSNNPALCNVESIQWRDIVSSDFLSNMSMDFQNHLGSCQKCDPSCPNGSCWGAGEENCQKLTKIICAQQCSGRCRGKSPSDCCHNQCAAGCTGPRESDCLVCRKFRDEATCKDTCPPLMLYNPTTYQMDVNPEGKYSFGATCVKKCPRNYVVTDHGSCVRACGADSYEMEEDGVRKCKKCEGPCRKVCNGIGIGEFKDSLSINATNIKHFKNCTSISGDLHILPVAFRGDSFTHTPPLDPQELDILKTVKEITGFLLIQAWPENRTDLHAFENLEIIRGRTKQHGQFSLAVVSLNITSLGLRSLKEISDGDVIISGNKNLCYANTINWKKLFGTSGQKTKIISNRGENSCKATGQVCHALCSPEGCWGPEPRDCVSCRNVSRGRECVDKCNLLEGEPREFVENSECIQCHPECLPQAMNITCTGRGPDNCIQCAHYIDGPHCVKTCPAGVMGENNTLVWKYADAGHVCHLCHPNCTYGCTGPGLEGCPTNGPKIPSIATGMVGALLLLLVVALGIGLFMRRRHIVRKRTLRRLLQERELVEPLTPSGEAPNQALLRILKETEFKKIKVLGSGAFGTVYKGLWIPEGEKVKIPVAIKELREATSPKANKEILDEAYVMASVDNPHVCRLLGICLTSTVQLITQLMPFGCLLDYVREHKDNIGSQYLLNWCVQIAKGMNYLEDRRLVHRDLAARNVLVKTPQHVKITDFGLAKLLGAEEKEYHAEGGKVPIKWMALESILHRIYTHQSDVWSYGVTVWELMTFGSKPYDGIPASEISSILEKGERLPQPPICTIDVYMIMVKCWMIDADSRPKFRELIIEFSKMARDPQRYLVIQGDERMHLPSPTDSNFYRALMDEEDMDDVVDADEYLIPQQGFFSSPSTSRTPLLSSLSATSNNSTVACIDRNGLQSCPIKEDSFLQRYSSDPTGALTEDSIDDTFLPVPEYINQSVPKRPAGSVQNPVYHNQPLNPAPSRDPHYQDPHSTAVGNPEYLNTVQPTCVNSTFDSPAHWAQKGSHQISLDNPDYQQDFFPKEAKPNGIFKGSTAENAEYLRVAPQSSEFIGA
Sequence of ErbB2 (P04626 23-1255): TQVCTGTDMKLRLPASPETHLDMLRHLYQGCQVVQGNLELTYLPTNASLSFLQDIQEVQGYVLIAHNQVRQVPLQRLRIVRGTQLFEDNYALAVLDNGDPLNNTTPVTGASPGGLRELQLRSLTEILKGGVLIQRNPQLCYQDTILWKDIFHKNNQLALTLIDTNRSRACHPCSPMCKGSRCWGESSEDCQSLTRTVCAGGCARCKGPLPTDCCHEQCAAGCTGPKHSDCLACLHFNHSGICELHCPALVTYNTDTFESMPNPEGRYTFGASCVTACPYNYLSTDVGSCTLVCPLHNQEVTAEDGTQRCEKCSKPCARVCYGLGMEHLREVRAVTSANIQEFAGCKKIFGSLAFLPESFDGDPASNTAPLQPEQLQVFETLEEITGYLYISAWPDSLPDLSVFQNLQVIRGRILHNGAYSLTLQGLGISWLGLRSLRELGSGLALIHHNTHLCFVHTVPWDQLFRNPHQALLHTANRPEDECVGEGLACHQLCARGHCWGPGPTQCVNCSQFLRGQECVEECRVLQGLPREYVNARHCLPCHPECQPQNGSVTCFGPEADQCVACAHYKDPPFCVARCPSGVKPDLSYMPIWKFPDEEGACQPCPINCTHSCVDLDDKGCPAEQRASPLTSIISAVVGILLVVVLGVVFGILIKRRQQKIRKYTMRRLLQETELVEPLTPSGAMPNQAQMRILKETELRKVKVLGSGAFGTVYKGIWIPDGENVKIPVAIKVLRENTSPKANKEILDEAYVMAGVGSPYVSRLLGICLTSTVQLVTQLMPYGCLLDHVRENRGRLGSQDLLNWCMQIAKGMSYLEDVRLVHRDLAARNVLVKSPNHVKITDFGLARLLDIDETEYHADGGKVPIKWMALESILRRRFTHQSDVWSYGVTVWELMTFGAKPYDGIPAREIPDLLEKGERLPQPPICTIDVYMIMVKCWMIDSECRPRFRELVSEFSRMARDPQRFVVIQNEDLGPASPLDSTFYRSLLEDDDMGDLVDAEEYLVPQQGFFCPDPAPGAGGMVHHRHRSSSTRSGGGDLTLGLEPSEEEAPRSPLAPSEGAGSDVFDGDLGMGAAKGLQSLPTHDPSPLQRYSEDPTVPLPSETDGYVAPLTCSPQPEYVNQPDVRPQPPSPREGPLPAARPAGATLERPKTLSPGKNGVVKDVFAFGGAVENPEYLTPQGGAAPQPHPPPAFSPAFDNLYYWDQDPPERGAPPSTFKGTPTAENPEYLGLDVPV

Compound	IC50 (ErbB2)	IC50 (SK-MEL-28 tumor cells)	IC50 (A375P tumor cells)	IC50 (B-Raf)	IC50 (HT-29 tumor cells)	IC50 (Colo205 tumor cells)	IC50 (SK-MEL-3 tumor cells)	IC50 (EGFR)
CCNc1nc(-c2cccc(OC)c2)c(-c2ccnc(Nc3ccc(OCCN(C)C)c(C)c3)n2)s1 [Example 77, N-(4-{[2-(Dimethylamino)ethyl]oxy}-3-methylphenyl)-4-{2-(ethylamino)-4-[3-(methyloxy)phenyl]-1,3-thiazol-5-yl}-2-pyrimidinamine]	< 100 nM	500 to 5000 nM	< 500 nM	< 100 nM	< 500 nM	< 500 nM	< 500 nM	< 100 nM
COc1cc(C)cc(-c2nc(CNS(C)(=O)=O)sc2-c2ccnc(Nc3ccc(N4CCN(C(C)=O)CC4)nc3)n2)c1 [Example 64, N-({5-(2-{[6-(4-Acetyl-1-piperazinyl)-3-pyridinyl]amino}-4-pyrimidinyl)-4-[3-methyl-5-(methyloxy)phenyl]-1,3-thiazol-2-yl}methyl)methanesulfonamide]	> 1000 nM	< 500 nM	< 500 nM	< 100 nM	< 500 nM	< 500 nM	< 500 nM	> 1000 nM
CCNc1nc(-c2cccc(Cl)c2)c(-c2ccnc(Nc3ccc(OCCN(C)C)c(Cl)c3)n2)s1 [Example 46, N-(3-Chloro-4-{[2-(dimethylamino)ethyl]oxy}phenyl)-4-[4-(3-chlorophenyl)-2-(ethylamino)-1,3-thiazol-5-yl]-2-pyrimidinamine]	< 100 nM	< 500 nM	< 500 nM	< 100 nM	< 500 nM	< 500 nM	< 500 nM	< 100 nM
CCNc1nc(-c2cc(C)cc(OC)c2)c(-c2ccnc(Nc3ccc4c(c3)CCN4C(C)=O)n2)s1 [Example 30, 1-Acetyl-N-(4-{2-(ethylamino)-4-[3-methyl-5-(methyloxy)phenyl]-1,3-thiazol-5-yl}-2-pyrimidinyl)-2,3-dihydro-1H-indol-5-amine]	> 1000 nM	< 500 nM	< 500 nM	< 100 nM	< 500 nM	< 500 nM	< 500 nM	> 1000 nM
COCCNc1nc(-c2cccc(OC)c2)c(-c2ccnc(Nc3ccc(N4CCOCC4)c(Cl)c3)n2)s1 [Example 43, N-[3-Chloro-4-(4-morpholinyl)phenyl]-4-{2-{[2-(methyloxy)ethyl]amino}-4-[3-(methyloxy)phenyl]-1,3-thiazol-5-yl}-2-pyrimidinamine hydrochloride]	< 100 nM	> 5000 nM	< 500 nM	< 100 nM	< 500 nM	500 to 5000 nM	< 500 nM	< 100 nM
CCNc1nc(-c2cc(C)cc(OC)c2)c(-c2ccnc(Nc3ccc(N4CCN(C(=O)COC)CC4)nc3)n2)s1 [Example 37, 4-{2-(Ethylamino)-4-[3-methyl-5-(methyloxy)phenyl]-1,3-thiazol-5-yl}-N-(6-{4-[(methyloxy)acetyl]-1-piperazinyl}-3-pyridinyl)-2-pyrimidinamine]	> 1000 nM	< 500 nM	< 500 nM	< 100 nM	< 500 nM	< 500 nM	< 500 nM	> 1000 nM
CCNc1nc(-c2cc(C)cc(OC)c2)c(-c2ccnc(Nc3ccc(N4CCN(C(C)=O)CC4)nc3)n2)s1 [Example 36, N-[6-(4-Acetyl-1-piperazinyl)-3-pyridinyl]-4-{2-(ethylamino)-4-[3-methyl-5-(methyloxy)phenyl]-1,3-thiazol-5-yl}-2-pyrimidinamine]	> 1000 nM	< 500 nM	< 500 nM	< 100 nM	< 500 nM	< 500 nM	< 500 nM	> 1000 nM
CCNc1nc(-c2cc(OC)cc(OC)c2)c(-c2ccnc(Nc3ccc(OC4CCN(CCS(C)(=O)=O)CC4)c(F)c3)n2)s1 [Example 10, 4-[4-[3,5-Bis(methyloxy)phenyl]-2-(ethylamino)-1,3-thiazol-5-yl]-N-[3-fluoro-4-({1-[2-(methylsulfonyl)ethyl]-4-piperidinyl}oxy)phenyl]-2-pyrimidinamine]	> 1000 nM	< 500 nM	< 500 nM	< 100 nM	< 500 nM	< 500 nM	< 500 nM	> 1000 nM
CCNc1nc(-c2cc(C)cc(OC)c2)c(-c2ccnc(Nc3ccc(N4CCOCC4)nc3)n2)s1 [Example 35, 4-{2-(Ethylamino)-4-[3-methyl-5-(methyloxy)phenyl]-1,3-thiazol-5-yl}-N-[6-(4-morpholinyl)-3-pyridinyl]-2-pyrimidinamine]	> 1000 nM	< 500 nM	< 500 nM	< 100 nM	< 500 nM	< 500 nM	< 500 nM	> 1000 nM
